Data reported in patent US20140206702A1, “IMIDAZOPYRIDINE COMPOUNDS, COMPOSITIONS AND METHODS OF USE” (Genentech, Inc., priority 2012, published 2014).

Each compound was assayed against T1, TYK2 kinase domain (Homo sapiens, UniProt P29597) (assay: JAK1, JAK2 and TYK2 Inhibition Assay Protocol (Caliper LabChip, isolated kinase domain)). Details: 1 nM purified TYK2 enzyme, 25 uM ATP, Morrison tight binding model; read-out: Ki values for TYK2 inhibition.
T1 construct: The activity of the isolated JAK1, JAK2 or TYK2 kinase domain was measured
T1 sequence (P29597 897-1176 limits assumed): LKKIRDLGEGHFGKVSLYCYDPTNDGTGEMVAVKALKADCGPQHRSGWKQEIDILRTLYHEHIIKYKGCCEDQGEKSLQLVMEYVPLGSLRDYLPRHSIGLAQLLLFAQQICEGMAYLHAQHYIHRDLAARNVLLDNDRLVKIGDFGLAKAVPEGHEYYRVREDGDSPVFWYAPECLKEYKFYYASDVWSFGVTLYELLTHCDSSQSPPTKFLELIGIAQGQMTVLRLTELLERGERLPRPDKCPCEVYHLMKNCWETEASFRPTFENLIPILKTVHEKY
Type: biochemical
Method: The activity of the isolated JAK1, JAK2 or TYK2 kinase domain was measured by monitoring phosphorylation of a peptide derived from JAK3 (Val-Ala-Leu-Val-Asp-Gly-Tyr-Phe-Arg-Leu-Thr-Thr) fluorescently labeled on the N-terminus with 5-carboxyfluorescein using the Caliper LabChip technology (Caliper Life Sciences, Hopkinton, Mass.). To determine the inhibition constants (Ki) of Examples 1-11, compounds were diluted serially in DMSO and added to 50 uL kinase reactions containing 1.5 nM JAK1, 0.2 nM purified JAK2 or 1 nM purified TYK2 enzyme, 100 mM Hepes pH7.2, 0.015% Brij-35, 1.5 uM peptide substrate, 25 uM ATP, 10 mM MgCl2, 4 mM DTT at a final DMSO concentration of 2%. Reactions were incubated at 22° C. in 384-well polypropylene microtiter plates for 30 minutes and then stopped by addition of 25 uL of an EDTA containing solution (100 mM Hepes pH 7.2, 0.015% Brij-35, 150 mM EDTA), resulting in a final EDTA concentration of 50 mM. After termination of the kinase reaction, the proportion of phosphorylated product was determined as a fraction of total peptide substrate using the Caliper LabChip 3000 according to the manufacturer's specifications. Ki values were then determined using the Morrison tight binding model. Morrison, J. F., Biochim. Biophys. Acta. 185:269-296 (1969); William, J. W. and Morrison, J. F., Meth. Enzymol., 63:437-467 (1979).

Going from `N#Cc1cccc(F)c1-c1nc2ccnc(Nc3cc(N)ncn3)c2[nH]1` [Example 1, 2-(4-(6-aminopyrimidin-4-ylamino)-3H-imidazo[4,5-c]pyridin-2-yl)-3-fluorobenzonitrile] to `Cc1cc(Nc2nccc3nc(-c4c(C#N)cccc4C#N)[nH]c23)ncn1` [Example 7, 2-(4-(6-methylpyrimidin-4-ylamino)-3H-imidazo[4,5-c]pyridine-2-yl)isophthalonitrile], the Ki rises from 0.4 nM to 2.7 nM (6.8-fold).

For `N#Cc1cccc(F)c1-c1nc2ccnc(NC(=O)C3CC3)c2[nH]1` [Example 11, N-(2-(2-cyano-6-fluorophenyl)-3H-imidazo[4,5-c]pyridin-4-yl)cyclopropanecarboxamide], the Ki was 6 nM.

Same assay, conditions: Table 1; 1 nM purified TYK2 enzyme, 25 uM ATP, Morrison tight binding model; read-out: TYK2 Ki

First: N#Cc1cccc(Cl)c1-c1nc2ccnc(Nc3cc(N)ncn3)c2[nH]1 [Example 2, 2-(4-(6-aminopyrimidin-4-ylamino)-3H-imidazo[4,5-c]pyridine-2-yl)-3-chlorobenzonitrile]
Second: Cc1cc(Nc2nccc3nc(-c4c(Cl)cccc4C#N)[nH]c23)ncn1 [Example 3, 3-chloro-2-(4-(6-methylpyrimidin-4-ylamino)-3H-imidazo[4,5-c]pyridine-2-yl)benzonitrile]
The Ki of the first is 2-fold lower: 0.4 nM for the first, 0.8 nM for the second.

`Cc1cc(Nc2nccc3nc(-c4c(F)cccc4C#N)[nH]c23)ncn1` [Example 4, 3-fluoro-2-(4-(6-methylpyrimidin-4-ylamino)-3H-imidazo[4,5-c]pyridine-2-yl)benzonitrile] and `CNc1cc(Nc2nccc3nc(-c4c(F)cccc4C#N)[nH]c23)ncn1` [Example 8, 3-fluoro-2-(4-(6-(methylamino)pyrimidin-4-ylamino)-3H-imidazo[4,5-c]pyridin-2-yl)benzonitrile] are within 1.5-fold of each other in Ki: 1 nM for the first, 0.7 nM for the second.

First: N#Cc1cccc(Cl)c1-c1nc2ccnc(Nc3cc(CO)ncn3)c2[nH]1 [Example 5, 3-chloro-2-(4-(6-(hydroxymethyl)pyrimidin-4-ylamino)-3H-imidazo[4,5-c]pyridin-2-yl)benzonitrile]
Second: N#Cc1cccc(F)c1-c1nc2ccnc(Nc3cc(CO)ncn3)c2[nH]1 [Example 9, 3-fluoro-2-(4-(6-(hydroxymethyl)pyrimidin-4-ylamino)-3H-imidazo[4,5-c]pyridin-2-yl)benzonitrile]
The Ki of the first is 2.5-fold lower: 0.8 nM for the first, 2 nM for the second.

Going from `CNc1cc(Nc2nccc3nc(-c4c(Cl)cccc4C#N)[nH]c23)ncn1` [Example 6, 3-chloro-2-(4-(6-(methylamino)pyrimidin-4-ylamino)-3H-imidazo[4,5-c]pyridin-2-yl)benzonitrile] to `N#Cc1cccc(Cl)c1-c1nc2ccnc(NC(=O)C3CC3)c2[nH]1` [Example 10, N-(2-(2-chloro-6-cyanophenyl)-3H-imidazo[4,5-c]pyridin-4-yl)cyclopropanecarboxamide], the Ki rises from 0.6 nM to 1.3 nM (2.2-fold). The first binds more tightly here.
